Reference: patent US8859527B2 (priority 2009, dated 2014)
Where two headings read alike, the source gives them in different places.

How the values were obtained:
[1] = water solubility by the method of Chinese Pharmacopoeia 2005; format: physicochemical; settings: DPT not included
Method: HP-β-CD and DPT are prepared into inclusion complexes under different conditions, and the DPT concentration in the inclusion complex is determined by ultraviolet spectrophotometry, and the composition molar ratio of DPT to HP-β-CD in the inclusion complex is further calculated; the water-solubility of the inclusion complex is determined according to the method specified in the examples of Chinese Pharmacopoeia 2005, so that solubility of DPT in this inclusion complex is further calculated.
With regard to the three factors, namely the concentration of HP-β-CD solution, the temperature for inclusion and the duration for inclusion, orthogonal experiments are carried out on three levels (the concentrations of the HP-β-CD solutions are 10%, 20% and 30%; the temperatures are 40° C., 50° C. and 60° C.; the duration is 1 hour, 2 hour and 3 hour), content and solubility of DPT in the inclusion complex are used as the evaluation parameters for the efficacy of inclusion, and the results are shown in Table 3. The solubility is determined by the method specified in the examples in Chinese Pharmacopoeia 2005, and the results are shown in Table 4.
The DPT content in the inclusion complex is determined by ultraviolet spectrophotometry. The solubility is determined by using the method specified in the examples in Chinese Pharmacopoeia 2005, and the results are shown in Table 6.

[2] = tested on: A-549 (human lung adenocarcinoma cell line); assay: in vitro growth inhibition of tumor cells, A-549; format: cell-based; settings: for Inhibition effects on in vitro growth: A549, 48 hours
Method: (§1) The tumor strains are A-549 (human lung adenocarcinoma cell line), BGC-823 (human gastric cancer cell line), C-6 (rat neurogliocytoma cell line), Hep G2 (human hepatic cancer cell line), HL-60 (human leukemia cell line), K-562 (human erythremia cell line) and Hela (human cervical cancer cell line). […] The drug was prepared as a stock solution of 10^−2 M by using physiological saline and diluted into the test solution in a gradient composed of five concentrations: C1 5×10^−5 M, C2 10^−5 M, C3 10^−6 M, C4 10^−7 M and C5 10^−8 M.
(§2) Experimental method: different tumor cells in exponential growth phase are inoculated in 96-well plates in a certain amount and the selected samples are added after the cells are cultured for 24 hours (suspension cells can be directly added after being inoculated), after the cells are incubated at 37° C. and 5% CO2 for another 48 hours, […] is added for further incubation for another 4 hours, and finally the samples are examined on a microplate reader after dissolving with DMSO.

[3] = tested on: C-6 (rat neurogliocytoma cell line); assay: in vitro growth inhibition of tumor cells, C-6; format: cell-based; settings: C6; for Inhibition effects on in vitro growth: 48 hours
Method: as §1, §2

[4] = tested on: Hep G2 (human hepatic cancer cell line); assay: in vitro growth inhibition of tumor cells, Hep G2; format: cell-based; settings: HepG2, 48 hours
Method: as §1, §2

[5] = tested on: HL-60 (human leukemia cell line); assay: in vitro growth inhibition of tumor cells, HL-60; format: cell-based; settings: for Inhibition effects on in vitro growth: 48 hours
Method: as §1, §2

[6] = tested on: Hela (human cervical cancer cell line); assay: in vitro growth inhibition of tumor cells, Hela; format: cell-based; settings: for Inhibition effects on in vitro growth: hela, 48 hours
Method: as §1, §2

[7] = tested on: transplanted tumor Heps; settings: Heps mice; for Body weight After administration / Tumor inhibition rate / Tumor weight: once every two days, four times
Method: (§3) Experimental groups: three dosage groups were set up for DPT, 10, 5 and 2.5 mg/kg; the blank control group: cyclophosphamide (CTX) group, Etoposide group 20 mg/kg.
(§4) Administration route: injection via tail vein, it is administered in a dosage of 0.4 ml/20 g body weight. Administration period: the drug is administrated 24 hours after the inoculation, once every two days for four times in total.
(§5) Experimental methods: 60 ICR mice with standard weight of from 18 to 22 g are inoculated with S-180 or Heps solid tumor according to the test method for transplanted tumors, hypodermic inoculation with 0.2 ml is carried out in the armpit in the anterior limb of every mouse. The body weight is determined 24 hours after the inoculation and they are randomly divided into six groups: the blank control group, the CTX group (20 mg/kg), the Etoposide group (20 mg/kg), the DPT group (10, 5 and 2.5 mg/Kg). The drug is administrated 24 hours after the inoculation once for every two days for 4 times, and tumor-bearing mice are killed on the next after drug withdrawal and their body weights are measured, and the separated tumor mess is weighed, and all of the data are subjected to statistical analyses (t-test).

[8] = tested on: transplanted tumor S180; settings: S180 mice; for Body weight After administration / Tumor weight / Tumor-inhibition rate: once every two days, four times
Method: as §3, §4, §5

[9] = tested on: P-388 leukemia; settings: P-388 leukemia cell line; cited from earlier work
[10] = tested on: colon cancer HT-29; settings: cited from earlier work

Question: What does the source list for COc1cc([C@@H]2c3cc4c(cc3C[C@H]3COC(=O)[C@@H]32)OCO4)cc(OC)c1OC [DPT, Deoxypodophyllotoxin]?
Answer: solubility of DPT in water [1]: about 0.5 mg/L; Inhibition effects on in vitro growth ([2]; 5 × 10^−5M): 59.18%; Inhibition effects on in vitro growth ([2]; 10^−5M): 56%; Inhibition effects on in vitro growth ([2]; 10^−6M): 53.5%; Inhibition effects on in vitro growth ([2]; 10^−7M): 52.24%; Inhibition effects on in vitro growth ([2]; 10^−8M): 50.77%; inhibition effects compared with Etoposide ([2]; A-549, 10^−5 to 10^−8 M): significant better than that of Etoposide; Inhibition effects on in vitro growth ([3]; 5 × 10^−5M): 84.41%; Inhibition effects on in vitro growth ([3]; 10^−5M): 58.54%; inhibition effects compared with Etoposide ([3]; 10^−5 to 10^−8 M): significant better than that of Etoposide; Inhibition effects on in vitro growth ([3]; 10^−6M): 55.01%; Inhibition effects on in vitro growth ([3]; 10^−7M): 54.11%; Inhibition effects on in vitro growth ([3]; 10^−8M): 52.34%; Inhibition effects on in vitro growth ([4]; 5 × 10^−5M): 52.98%; Inhibition effects on in vitro growth ([4]; 10^−5M): 31.85%; Inhibition effects on in vitro growth ([4]; 10^−6M): 22.49%; Inhibition effects on in vitro growth ([4]; 10^−7M): 24.36%; Inhibition effects on in vitro growth ([4]; 10^−8M): 24.32%; Inhibition effects on in vitro growth ([5]; 5 × 10^−5M): 57.37%; Inhibition effects on in vitro growth ([5]; 10^−5M): 39.41%; inhibition effects compared with Etoposide ([5]; 10^−5 to 10^−8 M): significant better than that of Etoposide; Inhibition effects on in vitro growth ([5]; 10^−6M): 36.83%; Inhibition effects on in vitro growth ([5]; 10^−7M): 29.27%; Inhibition effects on in vitro growth ([5]; 10^−8M): 14.96%; inhibition effects compared with Etoposide ([6]; Hela, 10^−5 to 10^−8 M): significant better than that of Etoposide; Inhibition effects on in vitro growth ([6]; 5 × 10^−5M): 62.68%; Inhibition effects on in vitro growth ([6]; 10^−5M): 49.89%; Inhibition effects on in vitro growth ([6]; 10^−6M): 47.9%; Inhibition effects on in vitro growth ([6]; 10^−7M): 46.57%; Inhibition effects on in vitro growth ([6]; 10^−8M): 42.9%; Body weight Before administration ([7]; 2.5 mg/kg iv group): 20.20 ± 1.48 g; Body weight After administration ([7]; 2.5 mg/kg iv): 24.50 ± 2.22 g; Tumor inhibition rate ([7]; 2.5 mg/kg iv): 32.10%; Tumor weight ([7]; 2.5 mg/kg iv): 1.34 ± 0.29 g; Body weight Before administration ([7]; 5 mg/kg iv group): 20.80 ± 1.40 g; Body weight After administration ([7]; 5 mg/kg iv): 24.00 ± 3.46 g; Tumor inhibition rate ([7]; 5 mg/kg iv): 42.27%; Tumor weight ([7]; 5 mg/kg iv): 1.14 ± 0.15 g; Body weight Before administration ([7]; 10 mg/kg iv group): 21.40 ± 0.84 g; Body weight After administration ([7]; 10 mg/kg iv): 22.90 ± 2.73 g; Tumor inhibition rate ([7]; 10 mg/kg iv): 52.09%; Tumor weight ([7]; 10 mg/kg iv): 0.94 ± 0.32 g; Body weight Before administration ([8]; 2.5 mg/kg iv group): 19.70 ± 1.16 g; Body weight After administration ([8]; 2.5 mg/kg iv): 24.90 ± 2.47 g; Tumor weight ([8]; 2.5 mg/kg iv): 1.41 ± 0.30 g; Tumor-inhibition rate ([8]; 2.5 mg/kg iv): 23.44%; Body weight Before administration ([8]; 5 mg/kg iv group): 19.00 ± 0.94 g; Body weight After administration ([8]; 5 mg/kg iv): 22.50 ± 2.55 g; Tumor weight ([8]; 5 mg/kg iv): 1.08 ± 0.26 g; Tumor-inhibition rate ([8]; 5 mg/kg iv): 41.67%; Body weight Before administration ([8]; 10 mg/kg iv group): 19.40 ± 1.71 g; Body weight After administration ([8]; 10 mg/kg iv): 22.50 ± 2.07 g; Tumor weight ([8]; 10 mg/kg iv): 0.84 ± 0.27 g; Tumor-inhibition rate ([8]; 10 mg/kg iv): 54.53%; in vitro inhibition effects [9]: in vitro inhibition effects; in vitro inhibition effects [10]: in vitro inhibition effects
